Assay results taken from patent US20090143438A1, “Novel Pyridine Derivative Having Anti-Helicobacter Pylori Activity” (Arigen Pharmaceuticals, Inc., priority 2006, published 2009).
In brackets after ≈: the same amount, converted by molar mass.

Key:
[1] = tested on: H. pylori, ATCC 43504; assay: Antibacterial power test, Columbia agar, MIC; format: cell-based, Helicobacter pylori; conditions: Helicobacter pylori, ATCC43504, 72 h, 37° C., pH 7.0, 3 days, read on 4th day, read-out: MIC, in vitro anti-Helicobacter pylori activity
Method: An in vitro test was performed in a Columbia agar medium using a standard strain of H. pylori, ATCC 43504. […] Each of the test objects was dissolved in a 1% DMSO solution. Furthermore, as antibiotic control drugs, ampicillin from the penicillin family (control drug 1), gentamycin from the aminoglycoside family (control drug 2), tetracycline from the tetracycline family (control drug 3), and ofloxacin from the new quinolone family (control drug 4) were used.

[2] = tested on: Helicobacter pylori NCTC11637; conditions: standard strain NCTC11637; data from Table 6 of JP-A No. 7-69888; cited from earlier work
[3] = tested on: Helicobacter pylori NCTC11916; conditions: standard strain NCTC11916; data from Table 6 of JP-A No. 7-69888; cited from earlier work
[4] = tested on: H. pylori clinical isolate PT#1045482; assay: In vitro MIC test in Columbia agar, clinical isolate; format: cell-based; conditions: Helicobacter pylori, 72 h, 37° C., pH 7.0, 3 days
Method: (§1) An in vitro test was performed in a Columbia agar medium using standard strains of H. pylori, NCTC 11637 and 11916, clinical isolates PT#1045482, PT#1045483 and PT#1045484, and ofloxacin- and roxithromycin-resistant, clinical isolates TY2, 4 and 5. Each of the test objects was dissolved in a 1% DMSO solution. Furthermore, as antibiotic control drugs, roxithromycin from the macrolide family and ofloxacin from the new quinolone family were used. The strains were cultured at 37° C. and pH 7.0 for 3 days, and on the 4th day, the minimum inhibitory concentrations (MIC, μg/ml) were determined.

[5] = tested on: H. pylori clinical isolate PT#1045484; assay: as above; format: cell-based; conditions: Helicobacter pylori, 72 h, 37° C., pH 7.0, 3 days
Method: as §1

[6] = tested on: H. pylori clinical isolate PT#1045483; assay: as above; format: cell-based; conditions: Helicobacter pylori, 72 h, 37° C., pH 7.0, 3 days
Method: as §1

[7] = tested on: H. pylori NCTC 11637; assay: In vitro MIC test in Columbia agar, standard strain; format: cell-based, Helicobacter pylori; conditions: Helicobacter pylori, NCTC11637, 72 h; standard strain NCTC 11637; 37° C., pH 7.0, 3 days
Method: as §1

[8] = tested on: H. pylori NCTC 11916; assay: as above; format: cell-based, Helicobacter pylori; conditions: Helicobacter pylori, NCTC11916, 72 h; standard strain NCTC 11916; 37° C., pH 7.0, 3 days
Method: as §1

[9] = tested on: H. pylori ofloxacin- and roxithromycin-resistant clinical isolate TY5; assay: In vitro MIC test in Columbia agar, resistant clinical isolate; format: cell-based; conditions: Helicobacter pylori, 72 h; resistant strain TY5; 37° C., pH 7.0, 3 days
Method: as §1

[10] = tested on: H. pylori ofloxacin- and roxithromycin-resistant clinical isolate TY2; assay: as above; format: cell-based; conditions: Helicobacter pylori, 72 h; resistant strain TY2; 37° C., pH 7.0, 3 days
Method: as §1

[11] = tested on: H. pylori ofloxacin- and roxithromycin-resistant clinical isolate TY4; assay: as above; format: cell-based; conditions: Helicobacter pylori, 72 h; resistant strain TY4; 37° C., pH 7.0, 3 days
Method: as §1

MIC [1] [µg/mL]	SMILES	MIC [2] [µg/mL]	MIC [3] [µg/mL]	other results
	COc1ccc2[nH]c([S+]([O-])Cc3ncc(C)c(OC)c3C)nc2c1 (centres unmarked) [(a), 5-methoxy-2-(4-methoxy-3,5-dimethylpyridin-2-yl)methylsulfinyl-1H-benzimidazole]	50 (≈ 145 µM)	50 (≈ 145 µM)	
	COc1ccc2[nH]c(SCc3ncc(C)c(OC)c3C)nc2c1 [(b), 5-methoxy-2-(4-methoxy-3,5-dimethylpyridin-2-yl)methylthio-1H-benzimidazole]	12.5 (≈ 37.9 µM)	12.5 (≈ 37.9 µM)	
1 (≈ 2.77 µM)	CC1COc2c(N3CCN(C)CC3)c(F)cc3c(=O)c(C(=O)O)cn1c23 (centres unmarked) [Control Drug 4 (Ofloxacin), ofloxacin, reference compound]			MIC [4]: 0.8 µg/mL (≈ 2.21 µM); MIC [5]: 0.4 µg/mL (≈ 1.11 µM); MIC [6]: 0.8 µg/mL (≈ 2.21 µM); MIC [7]: 0.8 µg/mL (≈ 2.21 µM); MIC [8]: 0.8 µg/mL (≈ 2.21 µM); MIC [9]: 2.5 µg/mL (≈ 6.92 µM); MIC [10]: 2.5 µg/mL (≈ 6.92 µM); MIC [11]: 25 µg/mL (≈ 69.2 µM)
0.1 (≈ 0.286 µM)	CC1(C)S[C@@H]2[C@H](NC(=O)[C@H](N)c3ccccc3)C(=O)N2[C@H]1C(=O)O [Control Drug 1 (Ampicillin), ampicillin, reference compound]			
	CC[C@H]1OC(=O)[C@H](C)[C@@H](O[C@H]2C[C@@](C)(OC)[C@@H](O)[C@H](C)O2)[C@H](C)[C@@H](O[C@@H]2O[C@H](C)C[C@H](N(C)C)[C@H]2O)[C@](C)(O)C[C@@H](C)/C(=N\OCOCCOC)[C@H](C)[C@@H](O)[C@]1(C)O [RXM, roxithromycin, reference compound]	0.2 (≈ 0.239 µM)	0.1 (≈ 0.119 µM)	MIC [4]: 0.4 µg/mL (≈ 0.478 µM); MIC [5]: 0.2 µg/mL (≈ 0.239 µM); MIC [6]: 0.2 µg/mL (≈ 0.239 µM); MIC [7]: 0.2 µg/mL (≈ 0.239 µM); MIC [8]: 0.1 µg/mL (≈ 0.119 µM); MIC [9]: 3.5 µg/mL (≈ 4.18 µM); MIC [10]: > 100 µg/mL; MIC [11]: > 100 µg/mL
3 (≈ 9.11 µM)	Cc1c(OCCCO)ccnc1CSc1nc2ccccc2[nH]1 [Comparative Compound 2, 2-[{4-(3-hydroxypropoxy)-3-methylpyridin-2-yl}methylthio]-1H-benzimidazole, reference compound]			
	COCCCOc1ccnc(C[S+]([O-])c2nc3ccccc3[nH]2)c1C.[Na] (centres unmarked) [(e), 2-[4-(3-methoxypropoxy)-3-methylpyridin-2-yl]methylsulfinyl-1H-benzimidazole sodium salt]	0.8	1.56	
	Cc1c(OCC(F)(F)F)ccnc1C[S+]([O-])c1nc2ccccc2[nH]1 (centres unmarked) [(c), 2-[3-methyl-4-(2,2,2-trifluoroethoxy)pyridine-2-yl]methylsulfinyl-1H-benzimidazole]	6.25 (≈ 16.9 µM)	12.5 (≈ 33.8 µM)	
10 (≈ 31.7 µM)	Cc1c(OCCO)ccnc1CSc1nc2ccccc2[nH]1 [Comparative Compound 1, 2-[{4-(2-hydroxyethoxy)-3-methylpyridin-2-yl}methylthio]-1H-benzimidazole, reference compound]			
	COCCCOc1ccnc(CSc2nc3ccccc3[nH]2)c1C [(f), 2-[4-(3-methoxypropoxy)-3-methylpyridin-2-yl]methylthio-1H-benzimidazole]	0.8 (≈ 2.33 µM)	1.56 (≈ 4.54 µM)	
	Cc1c(OCC(F)(F)F)ccnc1CSc1nc2ccccc2[nH]1 [(d), 2-[3-methyl-4-(2,2,2-trifluoroethoxy)pyridine-2-yl]methylthio-1H-benzimidazole]	1.56 (≈ 4.41 µM)	1.56 (≈ 4.41 µM)	

SMILES	MIC [1] [µg/mL]	MIC [2] [µg/mL]	MIC [3] [µg/mL]	other results
CN(C)[C@@H]1C(O)=C(C(N)=O)C(=O)[C@@]2(O)C(O)=C3C(=O)c4c(O)cccc4[C@@](C)(O)[C@H]3C[C@@H]12 [Control Drug 3 (Tetracycline), tetracycline, reference compound]	0.3 (≈ 0.675 µM)			
